Data: patent US20240360153A1 (Regeneron Pharmaceuticals, Inc., priority 2023, published 2024)
Several values for one entry are separate records, joined by “and”; a condition that tells them apart may be missing. Equal values may be shown once. Entries after “also recorded” stand apart in the source; their conditions may differ.

Assays:
[1] = In vitro microsomal metabolic stability, CD-1 mouse liver microsomes; format: in vitro ADME; conditions: for CLint scaled at 1 µM / microsomal CLint at 1 µM: CD-1, mouse, mouse liver microsomes, pH 7.2; for half-life at 1 µM: CD-1, pH 7.2, 0.5 mg/ml protein, NADPH; for half-life at 1 µM / Remaining (T = 60 min) / Remaining (T = NCF60 min): Mouse liver microsomes; for Remaining (T = 60 min): with NADPH; for Remaining (T = NCF60 min): without NADPH regenerating system; for Remaining (T = 60 min) / Remaining (T = NCF60 min): 60 min
Procedure, shortened: (§1)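 Compounds at 1 μM incubated at 37° C with pooled CD-1 mouse or human liver microsomes (0.5 mg/mL protein) plus NADPH regenerating system in 50 mM potassium phosphate, pH 7.2, 3.3 mM MgCl2; sampled at 0–60 min, 60-min no-NADPH control. Parent loss by LC/MS/MS analyte/IS peak-area ratio, n=1.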

[2] = tested on: S6K1 (Thr389) phosphorylation (mTORC1 activity) in FKBP12 knock-out 293T cells; assay: Inhibition of S6K1 (Thr389) phosphorylation in FKBP12 knock-out 293T cells (ELISA); format: cell-based, human
Procedure, shortened: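 CRISPR-generated FKBP12 knock-out HEK293T cells, alongside wild-type, were treated in duplicate for 2 hours at 37 °C with an 8–11-point dose range (0.001 pM–10 μM). Phospho-S6K1 Thr389 quantified by ELISA as an mTORC1 activity read-out, with DMSO as negative control.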

[3] = tested on: S6K1 (Thr389) phosphorylation (mTORC1 activity) in wild-type (WT) 293T cells; assay: Inhibition of S6K1 (Thr389) phosphorylation in wild-type 293T cells (ELISA); format: cell-based, human; conditions: for extent of inhibition of S6K1 (Thr389) phosphorylation: with increasing concentrations
Procedure, shortened: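 WT 293T cells in DMEM + 10% FBS, grown 24 h to ~80% confluence, then treated 2 h at 37 °C in duplicate with compounds over an 8–11-point range from 0.001 pM to 10 μM. DMSO vehicle served as negative control. Phospho-S6K1 (Thr389) measured by ELISA.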

[4] = In vitro microsomal metabolic stability, human liver microsomes; format: in vitro ADME; conditions: for Remaining (T = 60 min) / Remaining (T = NCF60 min) / half-life at 1 µM: Human liver microsomes; for Remaining (T = 60 min): with NADPH; for Remaining (T = NCF60 min): without NADPH regenerating system; for Remaining (T = 60 min) / Remaining (T = NCF60 min): 60 min; for CLint scaled at 1 µM / microsomal CLint at 1 µM: human, human liver microsomes; for CLint scaled at 1 µM / microsomal CLint at 1 µM / half-life at 1 µM: pH 7.2; for half-life at 1 µM: 0.5 mg/ml protein, NADPH
Procedure, shortened: as §1

Row | CLint scaled at 1 µM [1] [mL/min/kg] | microsomal CLint at 1 µM [1] [µL/min/mg] | half-life at 1 µM [1] [min] | Remaining (T = 60 min) [1] [%] | Remaining (T = NCF60 min) [1] [%] | Remaining (T = 60 min) [4] [%] | Remaining (T = NCF60 min) [4] [%] | CLint scaled at 1 µM [4] [mL/min/kg] | microsomal CLint at 1 µM [4] [µL/min/mg] | half-life at 1 µM [4] [min] | Compound | extent of inhibition of S6K1 (Thr389) phosphorylation ([3]; wild-type cells) | also measured
1 | 76.9 | 19.4 | 71.3 | 56 | 126 | 2.10 | 120 | 112 | 124 | 11.1 | CO[C@H]1C[C@@H]2CC[C@@H](C)[C@@](O)(O2)C(=O)C(=O)N2CCCC[C@H]2C(=O)O[C@H]([C@H](C)C[C@@H]2CC[C@@H](OCCO)[C@H](OC)C2)CC(=O)[C@H](C)/C=C(\C)[C@@H](O)[C@@H](OC)C(=O)[C@H](C)C[C@H](C)/C=C/C=C/C=C/1C [RAD001, everolimus, reference compound] | completely inhibit; also recorded: near complete inhibition | S6K1 inhibition achieved ([2]; FKBP12 knock-out 293T cells, concentration not given): about 50%; concentration achieving 30% inhibition of S6K1 (Thr389) phosphorylation ([2]; FKBP12 knock-out cells): ~3.0 nM; concentration achieving ~40% of S6K1 (Thr389) inhibition ([2]; FKBP12 knock-out cells): 447 nM; inhibition of S6K1 (Thr389) phosphorylation in the absence of FKBP12 (in words) ([2]; FKBP12 knock-out cells): inhibited the mTORC1 signaling in a dose dependent manner; inhibition of S6K1 phosphorylation ([2]; FKBP12 knock-out cells, 100 nM, 0.1 µM): ~35%; inhibition of S6K1 (Thr389) phosphorylation ([2]; FKBP12 knock-out cells, 10 μM (highest tested concentration), 10 µM): ~80% and ~70% and 42% and 45% and 58% and 73.5% and 62% and ~60%; inhibition at 0.1 µM ([2]; Homo sapiens, HEK-293T, FKBP12 knock-out cells, 100 nM): ~30%; IC50 ([2]; Homo sapiens, HEK-293T, FKBP12 knock-out 293T cells): 31.3 nM
2 | 11.1 | 2.81 | 492 | 113 | 99.6 | 63.3 | 115 | 25.5 | 28.3 | 49 | COCCN(c1ccccc1)C1C[C@@H]2CC[C@@H](C)[C@@](O)(O2)C(=O)C(=O)N2CCCC[C@H]2C(=O)OC([C@H](C)CC2CC[C@@H](O)C(OC)C2)CC[C@H](C)/C=C(\C)C(O)C(OC)C(=O)[C@H](C)C[C@H](C)/C=C/C=C/C=C/1C (stereo partly drawn) [Compound 69, (3S,6S,7E,9R,10R,12R,14S,15E,17E,19E,23S,26R,27R,34aS)-9,27-dihydroxy-3-((R)-1-((1S,3R,4R)-4-hydroxy-3-methoxycyclohexyl)propan-2-yl)-10-methoxy-21-((2-methoxyethyl)(phenyl)amino)-6,8,12,14,20,26-hexamethyl-5,6,9,10,12,13,14,21,22,23,24,25,26,27,32,33,34,34a-octadecahydro-3H-23,27-epoxypyrido[2,1-c][1]oxa[4]azacyclohentriacontine-1,11,28,29(4H,31H)-tetraone] | near complete inhibition | fold less potent compared with RAD001 ([2]; FKBP12 knock-out cells, at similar level of inhibition): about 3000 fold; inhibition at 10 µM ([2]; Homo sapiens, HEK-293T, FKBP12 knock-out cells, 10 μM (highest tested concentration)): ~30%; selectivity for FKBP12 compared with RAD001 (in words) ([2]; wild-type versus FKBP12 knock-out cells): more selective than RAD001; IC50 ([3]; Homo sapiens, HEK-293T, 2 h, wild-type 293T cells, 2 hours treatment): 1.53 nM; fold lower potency compared with RAD001 (by IC50) ([3]; wild-type cells): 4 fold
